Laboratory results reported in the NIST ThermoML archive (doi:10.1021/je200434a).

Details: 101.33 kPa, Liquid; for viscosity: Concentric cylinders viscometry; for mass density: Vibrating tube method

CCCCCCCCOS(=O)(=O)[O-].CCn1cc[n+](C)c1 [1-ethyl-3-methylimidazolium octyl sulfate]
Details	mass density [kg/m3]	viscosity [mPa·s]
283.15 K	–	1879
288.15 K	–	1252.1
293.15 K	1098.76	856
294.15 K	1098.1	–
295.15 K	1097.43	–
296.15 K	1096.77	–
297.15 K	1096.31	–
298.15 K	1095.65	601.6
299.15 K	1094.99	–
300.15 K	1094.32	–
301.15 K	1093.65	–
302.15 K	1092.99	–
303.15 K	1092.32	433.6
304.15 K	1091.66	–
305.15 K	1090.99	–
306.15 K	1090.33	–
307.15 K	1089.66	–
308.15 K	1089	319.6
309.15 K	1088.33	–
310.15 K	1087.67	–
311.15 K	1087	–
312.15 K	1086.34	–
313.15 K	1085.68	240.5
314.15 K	1085.02	–
315.15 K	1084.36	–
316.15 K	1083.7	–
317.15 K	1083.04	–
318.15 K	1082.38	184.4
319.15 K	1081.72	–
320.15 K	1081.06	–
321.15 K	1080.4	–
322.15 K	1079.75	–
323.15 K	1079.09	143.8
324.15 K	1078.44	–
325.15 K	1077.78	–
326.15 K	1077.13	–
327.15 K	1076.48	–
328.15 K	1075.83	113.9
329.15 K	1075.17	–
330.15 K	1074.52	–
331.15 K	1073.87	–
332.15 K	1073.23	–
333.15 K	1072.58	91.6
334.15 K	1071.93	–
335.15 K	1071.29	–
336.15 K	1070.64	–
337.15 K	1070	–
338.15 K	1069.35	74.5
339.15 K	1068.71	–
340.15 K	1068.07	–
341.15 K	1067.43	–
342.15 K	1066.79	–
343.15 K	1066.15	61.4
344.15 K	1065.51	–
345.15 K	1064.87	–
346.15 K	1064.23	–
347.15 K	1063.6	–
348.15 K	1062.96	51.1
349.15 K	1062.32	–
350.15 K	1061.69	–
351.15 K	1061.05	–
352.15 K	1060.42	–
353.15 K	1059.79	43
354.15 K	1059.16	–
355.15 K	1058.53	–
356.15 K	1057.89	–
357.15 K	1057.26	–
358.15 K	1056.63	36.5
359.15 K	1056	–
360.15 K	1055.37	–
361.15 K	1054.75	–
362.15 K	1054.12	–
363.15 K	1053.49	31.3
368.15 K	–	27
373.15 K	–	23.5

CCCCCCOS(=O)(=O)[O-].CC[n+]1ccn(C)c1 [3-ethyl-1-methyl-1H-imidazolium hexyl sulfate]
Details	mass density [kg/m3]	viscosity [mPa·s]
283.15 K	–	875
288.15 K	–	604
293.15 K	1133.8	428.3
294.15 K	1133.12	–
295.15 K	1132.45	–
296.15 K	1131.77	–
297.15 K	1131.09	–
298.15 K	1130.42	311.4
299.15 K	1129.74	–
300.15 K	1129.07	–
301.15 K	1128.4	–
302.15 K	1127.72	–
303.15 K	1127.05	231.5
304.15 K	1126.38	–
305.15 K	1125.71	–
306.15 K	1125.04	–
307.15 K	1124.37	–
308.15 K	1123.7	175.7
309.15 K	1123.03	–
310.15 K	1122.36	–
311.15 K	1121.7	–
312.15 K	1121.03	–
313.15 K	1120.37	135.9
314.15 K	1119.7	–
315.15 K	1119.04	–
316.15 K	1118.38	–
317.15 K	1117.72	–
318.15 K	1117.06	106.9
319.15 K	1116.4	–
320.15 K	1115.74	–
321.15 K	1115.08	–
322.15 K	1114.42	–
323.15 K	1113.77	85.4
324.15 K	1113.12	–
325.15 K	1112.46	–
326.15 K	1111.81	–
327.15 K	1111.16	–
328.15 K	1110.51	69.2
329.15 K	1109.86	–
330.15 K	1109.21	–
331.15 K	1108.56	–
332.15 K	1107.92	–
333.15 K	1107.27	56.8
334.15 K	1106.63	–
335.15 K	1105.98	–
336.15 K	1105.33	–
337.15 K	1104.69	–
338.15 K	1104.05	47.2
339.15 K	1103.41	–
340.15 K	1102.77	–
341.15 K	1102.13	–
342.15 K	1101.49	–
343.15 K	1100.85	39.6
344.15 K	1100.21	–
345.15 K	1099.57	–
346.15 K	1098.93	–
347.15 K	1098.3	–
348.15 K	1097.66	33.6
349.15 K	1097.02	–
350.15 K	1096.39	–
351.15 K	1095.75	–
352.15 K	1095.12	–
353.15 K	1094.49	28.8
354.15 K	1093.85	–
355.15 K	1093.22	–
356.15 K	1092.59	–
357.15 K	1091.95	–
358.15 K	1091.32	24.8
359.15 K	1090.69	–
360.15 K	1090.06	–
361.15 K	1089.43	–
362.15 K	1088.8	–
363.15 K	1088.17	21.6
368.15 K	–	18.9
373.15 K	–	16.7

CCCCOS(=O)(=O)[O-].CC[n+]1ccn(C)c1 [3-ethyl-1-methylimidazolium butyl sulfate]
Details	mass density [kg/m3]	viscosity [mPa·s]
283.15 K	–	468.4
288.15 K	–	332.5
293.15 K	1179.68	242.3
294.15 K	1178.99	–
295.15 K	1178.3	–
296.15 K	1177.62	–
297.15 K	1176.93	–
298.15 K	1176.24	180.8
299.15 K	1175.55	–
300.15 K	1174.87	–
301.15 K	1174.19	–
302.15 K	1173.5	–
303.15 K	1172.82	137.9
304.15 K	1172.14	–
305.15 K	1171.46	–
306.15 K	1170.78	–
307.15 K	1170.11	–
308.15 K	1169.43	107.2
309.15 K	1168.75	–
310.15 K	1168.08	–
311.15 K	1167.41	–
312.15 K	1166.73	–
313.15 K	1166.06	84.8
314.15 K	1165.39	–
315.15 K	1164.73	–
316.15 K	1164.06	–
317.15 K	1163.39	–
318.15 K	1162.73	68.1
319.15 K	1162.06	–
320.15 K	1161.4	–
321.15 K	1160.74	–
322.15 K	1160.07	–
323.15 K	1159.41	55.6
324.15 K	1158.76	–
325.15 K	1158.1	–
326.15 K	1157.43	–
327.15 K	1156.78	–
328.15 K	1156.12	45.9
329.15 K	1155.47	–
330.15 K	1154.81	–
331.15 K	1154.16	–
332.15 K	1153.51	–
333.15 K	1152.85	38.4
334.15 K	1152.2	–
335.15 K	1151.55	–
336.15 K	1150.9	–
337.15 K	1150.25	–
338.15 K	1149.6	32.4
339.15 K	1148.95	–
340.15 K	1148.3	–
341.15 K	1147.65	–
342.15 K	1147.01	–
343.15 K	1146.37	27.7
344.15 K	1145.72	–
345.15 K	1145.07	–
346.15 K	1144.43	–
347.15 K	1143.78	–
348.15 K	1143.14	23.8
349.15 K	1142.5	–
350.15 K	1141.85	–
351.15 K	1141.21	–
352.15 K	1140.57	–
353.15 K	1139.93	20.7
354.15 K	1139.29	–
355.15 K	1138.65	–
356.15 K	1138.01	–
357.15 K	1137.37	–
358.15 K	1136.73	18.1
359.15 K	1136.09	–
360.15 K	1135.45	–
361.15 K	1134.82	–
362.15 K	1134.18	–
363.15 K	1133.54	16
368.15 K	–	14.2
373.15 K	–	12.6
